Measurements from article PMC6272854, “Two New Bioactive α-Pyrones from Hypericum japonicum” (Molecules, 2016).

Tests used:
[1] = Cell viability of iSLK.219 cells (AlamarBlue Cell Viability Assay); assay type: cell-based; settings: iSLK.219 cells harbouring rKSHV.219 virus, human iSLK.219 cells, in presence of Dox and NaB
Protocol: (§1) Figure 5 The effects of positive control cidofovir (CDV), 1 and 2 on human iSLK.219 cells viabilities and on lytic replication of KSHV infecting Vero cells were measured in vitro.
(§2) Human iSLK.219 cells were used to determine the antiviral activity of desired compounds against KSHV. The cells harbor the rKSHV.219 virus that encodes green fluorescent protein (GFP) under control of the elongation factor 1α promoter (EF-1α) and lytic replication of KSHV was reactivated with 1 µg/mL doxycycline (Dox) (Beyotime) and 1.2 mM sodium butyrate (NaB) (Sigama). Cells grown to 70% confluence 96-well tissue culture plates were treated with indicated concentrations of compounds in present of Dox and NaB. Then cell viability was assessed at 48 h post drugs-induction by AlamarBlue® Cell Viability Assay (Invitrogen) according to the manufacturer’s protocol. The luminescent signal was measured using the Envison 2102 Multilabel Reader (Perkin Elmer, Waltham, MA, USA). The 50% cytotoxic concentration (CC50) for each compound was calculated from these dose-response curves using Graphpad5.0 Prism. The results were presented as mean values with standard deviations (n = 3) […]
(§3) The antiviral effects of compounds on KSHV were determined by infectivity assay as previously described. The supernatants from iSLK.219-treated or untreated with the compounds in the presence of Dox and NaB were collected at 48 h. Then, the supernatants were used to infect the Vero cells seeded in a 96-well plate as previously reported using centrifugation at 1500× g for 60 min [4]. The supernatants were then removed and replaced with flash DMEM medium. At 48 h, the expression of GFP per well in Vero cells was detected and analyzed using the Operetta High-Content Screening System (HCS) (Perkin Elmer). Nine image fields per well were recorded by the automated microscope based HCS and the GFP intensity per well was calculated using the Harmony 3.5 software (Perkin Elmer). Data were normalized as the fold change compared to the DMSO control. […]

[2] = system: Kaposi's sarcoma associated herpesvirus (KSHV) lytic replication; experiment: in vitro; assay type: cell-based; settings: human; CC50 (iSLK.219 cells) / IC50 (KSHV lytic replication); read-out: Selective Index (CC50/IC50)
Excerpt: (§4) Human gamma herpes viruses such as Kaposi’s sarcoma-associated herpes virus (KSHV) is a type of pathogenic virus related to Kaposi’s sarcoma, like epidemic KS, posttransplant KS, multicentric Castleman’s disease, and primary effusion lymphoma. Anti-infection towards lytic replication of KSHV plays a pivotal role as decreased a risk of KS, which were evidenced in cases of AIDS-associated epidemic KS patients. In our exhaustive study to explore bioactivities of metabolites, an inhibition assay on lytic replication of KSHV was investigated for compounds 1 and 2 referring to the previous experiments. […] The details of the dose-dependent manner were shown in Figure S1, Supplementary Materials. More elaborate procedures of anti-KSHV assay were also stated in Supplementary Materials.
as §1, §2
as §3, with “control. The IC50 (50% effective concentration) values correspond to compound concentrations required to reduce quantitative expression of the intensity of GFP by 50%. The results are presented as the mean values with” for “control.”
(§5) Figure S1. HRESIMS spectrum of japopyrone A (1).

[3] = system: Kaposi’s sarcoma associated herpesvirus (KSHV); experiment: microbe, parasite or virus in culture; assay type: cell-based; settings: Human gammaherpesvirus 8, Vero, 48 h
Excerpt: as §4, §1, §2
as §3, with “control. The IC50 (50% effective concentration) values correspond to compound concentrations required to reduce quantitative expression of the intensity of GFP by 50%. The results are presented as the mean values with” for “control.”
as §5

[4] = Cytotoxicity assay against human cancer cell line HL-60; assay type: cell-based; settings: HL-60 cells
Excerpt: (§6) Natural products have provided a rich resource for the discovery of new drugs, innovative therapeutic agents, and lead structures. In our studious research towards the discovery for new lead compounds and useful bioactivities from Chinese traditional herbs, several bioactivity screenings such as cytotoxicity assays against five human cancer cell lines (HL-60, SMMC-7721, A-549, MCF-7, and SW480), inhibitory activities on NO production, and inhibitory activities on β-site amyloid precursor protein cleaving enzyme 1 (BACE1), were carried out for compounds 1 and 2.

[5] = Cytotoxicity assay against human cancer cell line MCF-7; assay type: cell-based; settings: MCF-7 cells
Excerpt: as §6

[6] = Cytotoxicity assay against human cancer cell line A-549; assay type: cell-based; settings: A-549 cells
Excerpt: as §6

NO production = NO production inhibition assay; assay type: cell-based
Excerpt: as §6

[7] = Cytotoxicity assay against human cancer cell line SW480; assay type: cell-based; settings: SW480 cells
Excerpt: as §6

[8] = biological target: β-site amyloid precursor protein cleaving enzyme 1 (BACE1) (Homo sapiens, UniProt P56817); experiment: BACE1 inhibition assay; assay type: biochemical
Excerpt: as §6

[9] = Cytotoxicity assay against human cancer cell line SMMC-7721; assay type: cell-based; settings: SMMC-7721 cells
Excerpt: as §6

Sequence of β-site amyloid precursor protein cleaving enzyme 1 (BACE1) (P56817 22-501 limits assumed, species assumed): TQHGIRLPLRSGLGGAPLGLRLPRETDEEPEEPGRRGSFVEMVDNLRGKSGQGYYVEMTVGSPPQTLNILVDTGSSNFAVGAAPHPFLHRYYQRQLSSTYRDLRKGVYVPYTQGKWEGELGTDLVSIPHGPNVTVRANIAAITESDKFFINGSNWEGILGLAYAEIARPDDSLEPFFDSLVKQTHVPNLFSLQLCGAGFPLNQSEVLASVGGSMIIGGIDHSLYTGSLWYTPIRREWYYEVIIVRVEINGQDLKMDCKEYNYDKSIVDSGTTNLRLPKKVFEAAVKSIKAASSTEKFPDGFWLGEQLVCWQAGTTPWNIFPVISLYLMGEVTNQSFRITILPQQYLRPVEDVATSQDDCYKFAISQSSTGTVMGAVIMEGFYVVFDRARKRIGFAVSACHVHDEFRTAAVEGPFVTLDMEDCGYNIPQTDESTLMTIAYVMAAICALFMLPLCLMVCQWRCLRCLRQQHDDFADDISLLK

Row | SMILES | CC50 at 48 h [1] [µM] | selectivity ratio at 48 h [2] | IC50 [3] [µM] | IC50 [4] [µM] | IC50 [5] [µM] | IC50 [6] [µM] | IC50 (NO production) [µM] | IC50 [7] [µM] | IC50 [8] [µM] | IC50 [9] [µM]
1 | Nc1ccn(C[C@@H](CO)OCP(=O)(O)O)c(=O)n1 [CDV, cidofovir, reference compound] | > 1 | > 250 | < 0.004 |  |  |  |  |  |  | 
2 | COc1cc(-c2cc3c(c(=O)o2)C(C)(C)[C@H](C)O3)ccc1O [Compound 1, japopyrone A] | > 200 | > 2.34 | 85.3 | > 40 | > 40 | > 40 | > 25 | > 40 | > 40 | > 40
3 | COc1ccc(-c2cc3c(c(=O)o2)C(C)(C)[C@H](C)O3)cc1OC [Compound 2, japopyrone B] | > 200 | > 6.79 | 29.5 | > 40 | > 40 | > 40 | > 25 | > 40 | > 40 | > 40
